Assay results published in patent US6569842B2 (Board of Trustees of the University of Illinois, The, priority 2000, dated 2003).
≈ marks a conversion by molar mass, not a printed value. Read-outs that look alike come from different tables or passages of the source.

Key:
[1] = tested on: LU-1 (lung); test: Cytotoxicity against cultured LU-1 cells (SRB); assay type: cell-based, human; conditions: Method A, sample dissolved in DMSO, three days incubation; for IC50: Homo sapiens, Lu1, 72 h, read-out: ED50 LU-1
Protocol: (§1) Cytotoxicity of the crude extracts and purified compounds was determined in a number of cultured human cancer cell lines. Table 1 sets forth the various types of cancer cells evaluated using Method A. The cells were cultured in appropriate media and under standard conditions. To maintain logarithmic growth, the media were changed 24 hours prior to cytotoxic assays. On the day of the assay, the cells were harvested by trypsinization, counted, diluted in media, and added to 96-well plates containing test compounds dissolved in DMSO. The final DMSO concentration was 0.05%.
(§2) In each of Methods A-C, the plates were incubated for three days. Following the incubation period, the cells were fixed and stained with sulforhodamine B (SRB) dye. The bound dye was liberated with Tris base, and the OD515 (optical density at 515 nm) was measured on an ELISA reader. The growth of the betulinic acid-treated cells was determined by the OD515 values, and the growth was compared to the OD515 values of treated control cells of Methods A-C. Dose response studies were performed to generate ED50 values. As used herein, the term OD515 is defined as optical density at 515 nm, and the term ED50 is defined as the concentration of a compound required to reduce cell number by 50%.

[2] = tested on: A431 (squamous cells); test: Cytotoxicity against cultured A431 cells (SRB); assay type: cell-based, human; conditions: Method A, sample dissolved in DMSO; three days incubation
Protocol: as §1, §2

[3] = tested on: MEL-2 (melanoma); test: Cytotoxicity against cultured MEL-2 cells (SRB); assay type: cell-based, human; conditions: for IC50: Homo sapiens, MEL2, 72 h, read-out: ED50 MEL-2
Protocol: as §1, §2

[4] = tested on: ZR-75-1 (breast); test: Cytotoxicity against cultured ZR-75-1 cells (SRB); assay type: cell-based, human; conditions: for IC50: Homo sapiens, ZR-75-1, 72 h, read-out: ED50 ZR 75-1
Protocol: as §1, §2

[5] = tested on: U373 (glioma); test: Cytotoxicity against cultured U373 cells (SRB); assay type: cell-based, human; conditions: Method A, sample dissolved in DMSO; three days incubation
Protocol: as §1, §2

[6] = tested on: LNCaP (prostate); test: Cytotoxicity against cultured LNCaP cells (SRB); assay type: cell-based, human; conditions: Method A, sample dissolved in DMSO; three days incubation
Protocol: as §1, §2

[7] = tested on: BC-1 (breast); test: Cytotoxicity against cultured BC-1 cells (SRB); assay type: cell-based, human; conditions: for IC50: Homo sapiens, BC1, 72 h, read-out: ED50 BC-1
Protocol: as §1
as §2, with “The growth of the betulinic acid-treated cells was determined by the OD515 values, and the growth was compared to the OD515 values of treated control cells of Methods A-C.” left out

[8] = tested on: HT-1080 (sarcoma); test: Cytotoxicity against cultured HT-1080 cells (SRB); assay type: cell-based, human; conditions: Method A, sample dissolved in DMSO, three days incubation; for IC50: Homo sapiens, HT-1080, 72 h, read-out: ED50 HT-1080
Protocol: as §1, §2

[9] = tested on: COL-2 (colon); test: Cytotoxicity against cultured COL-2 cells (SRB); assay type: cell-based, human; conditions: for IC50: Homo sapiens, Col2, 72 h, read-out: ED50 COL-2
Protocol: as §1, §2

[10] = tested on: KB (human oral epidermoid carcinoma); test: Cytotoxicity against cultured KB cells (SRB); assay type: cell-based; conditions: Method A, sample dissolved in DMSO; three days incubation
Protocol: as §1, §2

[11] = Method A, sample dissolved in DMSO, three days incubation

Row | Compound | ED50 LU-1 [1] [mg/L] | ED50 A431 [2] [mg/L] | ED50 MEL-2 [3, 11] [mg/L] | ED50 ZR 75-1 [4, 11] [mg/L] | ED50 U373 [5] [mg/L] | ED50 LNCaP [6] [mg/L] | ED50 BC-1 [7, 11] [mg/L] | ED50 HT-1080 [8] [mg/L] | ED50 COL-2 [9, 11] [mg/L] | ED50 KB [10] [mg/L] | IC50 [1] [mg/L] | IC50 [3, 11] [mg/L] | IC50 [4, 11] [mg/L] | IC50 [7, 11] [mg/L] | IC50 [8] [mg/L] | IC50 [9, 11] [mg/L] | IC50 [3] [mg/L] | IC50 [4] [mg/L] | IC50 [7] [mg/L] | IC50 [9] [mg/L]
1 | Mithramycin A | 0.2 | 0.09 | 1.2 | 0.2 | 0.04 | 0.05 | 0.3 | 1.5 | 0.06 | 0.09 | – | – | – | – | – | – | – | – | – | –
2 | Cc1c2ccncc2c(C)c2c1[nH]c1ccccc12 [Ellipticine] | – | 0.5 (≈ 2.03 µM) | – | – | 1.6 (≈ 6.5 µM) | 0.8 (≈ 3.25 µM) | – | – | – | 0.04 (≈ 0.162 µM) | 0.02 (≈ 0.0812 µM) | 0.9 (≈ 3.65 µM) | 0.9 (≈ 3.65 µM) | 0.2 (≈ 0.812 µM) | 1.8 (≈ 7.31 µM) | 0.3 (≈ 1.22 µM) | – | – | – | –
3 | CC[C@@]1(O)C(=O)OCc2c1cc1n(c2=O)Cc2cc3ccccc3nc2-1 [Camptothecin] | – | – | – | – | – | 0.006 (≈ 0.0172 µM) | – | – | – | – | – | 0.02 (≈ 0.0574 µM) | 0.001 (≈ 0.00287 µM) | 0.07 (≈ 0.201 µM) | 0.01 (≈ 0.0287 µM) | 0.005 (≈ 0.0144 µM) | – | – | – | –
4 | COC(=O)C[C@](O)(CCCC(C)(C)O)C(=O)O[C@@H]1C(OC)=C[C@]23CCCN2CCc2cc4c(cc2[C@H]13)OCO4 [Homoharringtonine] | – | 0.02 (≈ 0.0367 µM) | – | – | 0.2 (≈ 0.367 µM) | 0.03 (≈ 0.055 µM) | – | – | – | – | 0.03 (≈ 0.055 µM) | 0.04 (≈ 0.0733 µM) | 0.06 (≈ 0.11 µM) | 0.03 (≈ 0.055 µM) | 0.01 (≈ 0.0183 µM) | 0.1 (≈ 0.183 µM) | – | – | – | –
5 | COc1cc([C@@H]2c3cc4c(cc3[C@H](O)[C@H]3COC(=O)[C@H]23)OCO4)cc(OC)c1OC [Podophyllotoxin] | – | 0.03 (≈ 0.0724 µM) | – | – | 0.004 (≈ 0.00965 µM) | 0.04 (≈ 0.0965 µM) | – | – | – | 0.08 (≈ 0.193 µM) | – | – | – | – | – | – | 0.003 (≈ 0.00724 µM) | 0.4 (≈ 0.965 µM) | 0.03 (≈ 0.0724 µM) | 0.005 (≈ 0.0121 µM)
